Measured values from publication PMC12481249.
Like-named read-outs stand apart in the source and are kept apart here.

Experiments:
MCF-7 Br Ca cell line = assay: MTT cytotoxicity (antiproliferative) assay
Description: Cytotoxic activity evaluation
To measure the cytotoxic actvity of the synthesized naphthalen-1-yloxyacetamide
tethered acrlamide derivatives 5a-j and 6a,b in breast adenocarcinoma (MCF-7) cell line
(ATCC Cat. No. HTB-22). Cell viability assay was assessed using MTT assay method.
Cells at density of 1 x 104 were seeded in a 96-well plate at 37 °C for 24 h under 5%
CO2. After incubation, the cells were treated with different concentrations of the
investigated naphthalen-1-yloxyacetamide tethered acrlamide derivatives 5a-j and 6a,b
and incubated for 24 h, then 20 l of MTT solution at 5 mg/mL was applied and
incubated for 4 h at 37 °C. Dimethyl sulphoxide (DMSO) in volume of 100 µl was
added to each well to dissolve the purple formazan that had formed. The color intensity
of the formazan product, which represents the growth condition of the cells, is quantified
by using an ELISA plate reader (EXL 800, USA) at 570 nm absorbance. The experimental conditions were carried out with at least three replicates, and the experiments were repeated at least three times.

aromatase enzyme = molecular target: T1, aromatase enzyme (Homo sapiens, UniProt P11511); assay: Aromatase inhibition assay (ELISA method kit); format: biochemical; settings: five concentrations
T1 construct: IC50 values against aromatase enzyme in MCF-7 Br Ca cells treated with; endogenous in cells; host or cells: MCF-7
T1 sequence (P11511 1-503): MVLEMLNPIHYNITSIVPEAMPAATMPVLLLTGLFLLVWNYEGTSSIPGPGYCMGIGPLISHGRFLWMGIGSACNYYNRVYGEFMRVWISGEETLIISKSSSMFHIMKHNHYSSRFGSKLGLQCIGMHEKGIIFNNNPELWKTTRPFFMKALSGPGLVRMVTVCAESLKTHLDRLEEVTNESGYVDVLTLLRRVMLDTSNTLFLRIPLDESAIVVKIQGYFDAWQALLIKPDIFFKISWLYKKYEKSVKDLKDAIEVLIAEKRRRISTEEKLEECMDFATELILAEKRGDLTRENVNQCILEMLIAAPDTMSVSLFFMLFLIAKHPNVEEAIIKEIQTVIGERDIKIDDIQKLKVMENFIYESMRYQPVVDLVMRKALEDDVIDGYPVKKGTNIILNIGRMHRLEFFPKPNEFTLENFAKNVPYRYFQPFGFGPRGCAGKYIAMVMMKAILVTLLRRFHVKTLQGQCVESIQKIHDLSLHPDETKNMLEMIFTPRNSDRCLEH

MCF-7 Br Ca cells [1] = assay: DNA flow cytometry cell cycle analysis; format: cell-based; settings: MCF-7, at the IC50 value for 48 h
From the text: It is frequently utilized in cell biology to comprehend growth regulation, cell proliferation and the impact of both drugs and genetic alterations on cellular division.[44] Recognizing and manipulating the phase at which cell cycle arrest occurs can improve the therapeutic efficacy and selectivity of chemotherapeutic drugs, as many cancer therapies target rapidly proliferating cells.[45] The most cytotoxic naphthalen-1-yloxyacetamide-tethered acrylamide conjugate, 5d, was chosen in order to further assess its impact on the advancement on cell cycle in MCF-7 Br Ca cells. […] There was also a control experiment that receives no treatment. According to Flow cytometric study, naphthalen-1-yloxyacetamide-tethered acrylamide conjugate 5d treatment causes a G1 stoppage that is almost 1.4-times greater than that of the control (Fig. 4).
S4.2.3. Cell cycle analysis of compound 5d
Cell cycle analysis in MCF-7 cells was investigated using fluorescent Annexin V-FITC/ PI detection kit (BioVision EZCellTM Cell Cycle Analysis Kit Catalog #K920) by flow […]
washed twice in PBS. After that, the cells were incubated at 37 °C and 5% CO2. The […]
twice in PBS, fixed with 70% ethanol, rinsed again with PBS. Afterward, medium was stained with DNA fluorochrome PI for 15 min at 37 °C. The samples were immediately analyzed using Facs Calibur flow cytometer (Becton and Dickinson, Heidelberg, […]
S4.2.4. […]

Bax = Bax level assay in MCF-7 cells; format: cell-based; settings: MCF-7, qRT-PCR technique (SI: ELISA kit), IC50 concentration
From the text: (§1) Programmed cell death, or apoptosis, is a complex series of biochemical processes.[50] Pro-apoptotic proteins include Bad, Bax, Bid and Bim, while anti-apoptotic members include Bcl-2 and Bc-LXI.[51,52] The anti-apoptotic proteins prevent cytochrome-c from release, which inhibits apoptosis, while pro-apoptotic members activate the release of cytochrome-c.[53] When there is a higher ratio of pro-apoptotic proteins than anti-apoptotic ones, the outer mitochondrial membrane becomes permeable leading to a cascade of events.[54] The cytochrome-c is released, which activates caspase 9, which in turn triggers caspase 3, which triggers apoptotic processes.[55] […] According to the data, the tested compound's Bax gen level increased noticeably compared with control. […]
(§2) Annexin V-FITC/ PI dye for 15 min in the dark at 37 °C. The samples were immediately analyzed using FACS Calibur flow cytometer (Becton and Dickinson, Heidelberg, […]
(§3) Bcl-2, Bax and Caspase 9 activities in MCF-7 Br Ca cells were detected in the presence of conjugate 5d at the IC50 concentration (µM). The levels of anti-apoptotic marker Bcl-2, apoptotic markers Bax as well as Caspase 9 were assessed using appropriate ELISA kit. […]
(§4) with IC50 concentration of compound 5d. […] The samples were measured at 450 nm in ROBONEK P2000 ELISA reader. […]

caspase 9 = assay: Caspase 9 level assay in MCF-7 cells; format: cell-based; settings: MCF-7, qRT-PCR technique (SI: ELISA kit), IC50 concentration
From the text: An essential initiator caspase in the intrinsic apoptotic process is caspase 9.[56] It is essential for inducing cell death in response to internal stress such as oxidative stress, DNA damage, or oncogene activation conditions, which are frequently present in cancer cells.[57] Therefore, therapeutic strategies that enhance or restore its activity can potentially overcome apoptosis resistance in tumors.[58] In this context, naphthalene-1-yloxyacetamide tethered acrylamide conjugate 5d were evaluated as caspase 9 activator against MCF-7 cells using qRT-PCR technique. […] It is worth mentioning that, the level of caspase 9 protein level is increased 8.2-fold more than the negative control.
Apoptosis in MCF-7 cells was investigated using fluorescent Annexin V-FITC/ PI detection kit (BioVision Annexin V-FITC Apoptosis Detection Kit, Catalog #: K101) by […]
as §2
6. […]
as §3, §4

MCF-7 Br Ca cells [2] = assay: FITC-Annexin V/PI apoptosis assay; format: cell-based; settings: MCF-7, 48 h
Bcl-2 = Bcl-2 level assay in MCF-7 cells; format: cell-based; settings: MCF-7, qRT-PCR technique (SI: ELISA kit), IC50 concentration
From the text: as §1, §2, §3, §4

aromatase = molecular target: aromatase; set-up: method as in PMID 31416738; settings: cited from earlier work
[3] = Homo sapiens, MCF7, read-out: IC50 MCF-7, MTT, MCF-7 Br Ca cell line, mean ± SD (n = 3)

For `O=C(COc1cccc2ccccc12)NNC(=O)/C(=C/c1ccc(Cl)cc1)NC(=O)c1ccccc1` [5a, (Z)-N-(1-(4-Chlorophenyl)-3-(2-(2-(naphthalen-1-yloxy)acetyl)hydrazineyl)-3-oxoprop-1-en-2-yl)benzamide], the IC50 (MCF-7 Br Ca cell line; [3]) was 51.8 ± 1.51 µM.

Work on `O=C(COc1cccc2ccccc12)NNC(=O)/C(=C/c1ccc(Br)cc1)NC(=O)c1ccccc1` [5b, (Z)-N-(1-(4-Bromophenyl)-3-(2-(2-(naphthalen-1-yloxy)acetyl)hydrazineyl)-3-oxoprop-1-en-2-yl)benzamide] yielded an IC50 (MCF-7 Br Ca cell line; [3]) of 30.7 ± 1.18 µM.

In the case of `O=C(COc1cccc2ccccc12)NNC(=O)/C(=C/c1ccc([N+](=O)[O-])cc1)NC(=O)c1ccccc1` [5c, (Z)-N-(3-(2-(2-(Naphthalen-1-yloxy)acetyl)hydrazineyl)-1-(4-nitrophenyl)-3-oxoprop-1-en-2-yl)benzamide], the IC50 (aromatase enzyme) is reported as 0.143 µM.

With `COc1ccc(/C=C(\NC(=O)c2ccccc2)C(=O)NNC(=O)COc2cccc3ccccc23)cc1` [5d, (Z)-N-(1-(4-methoxyphenyl)-3-(2-(2-(naphthalen-1-yloxy)acetyl)hydrazineyl)-3-oxoprop-1-en-2-yl)benzamide] the “G1 stoppage relative to control” value (MCF-7 Br Ca cells [1]) was about 1.4 times, the “Bax level fold vs untreated MCF-7 cells” value (Bax) was 4.0 fold and the IC50 (MCF-7 Br Ca cell line; [3]) was 3.03 µM. For the same compound, the IC50 (MCF-7 Br Ca cell line; read-out: IC50 MCF-7, MTT, MCF-7 Br Ca cell line, mean ± SD (n = 3)) was 2.33 ± 0.1 µM, the IC50 (aromatase enzyme) was 0.078 µM and the “caspase 9 level fold vs negative control” value (caspase 9) was 8.2 fold. For the same compound, the “early apoptosis fold increase vs control” value (MCF-7 Br Ca cells [2]) was 33.6 fold, the “late apoptosis fold increase vs control” value (MCF-7 Br Ca cells [2]) was 42.0 fold and the “late apoptotic cells percentage” value (MCF-7 Br Ca cells [2]; IC50 concentration, control untreated 0.14%) was 5.88%. The early apoptosis percentage (MCF-7 Br Ca cells [2]; IC50 concentration, no treatment control 0.57%) was 19.17% and the “Bcl-2 gene level factor vs negative control” value (Bcl-2) was 0.3.

`CN(C)c1ccc(/C=C(\NC(=O)c2ccccc2)C(=O)NNC(=O)COc2cccc3ccccc23)cc1` [5e, (Z)-N-(1-(4-(Dimethylamino)phenyl)-3-(2-(2-(naphthalen-1-yloxy)acetyl)hydrazineyl)-3-oxoprop-1-en-2-yl)benzamide] gave an IC50 (aromatase enzyme) of 0.093 µM.

In the case of `COc1ccc(/C=C(\NC(=O)c2ccccc2)C(=O)NNC(=O)COc2cccc3ccccc23)cc1OC` [5f, (Z)-N-(1-(3,4-Dimethoxyphenyl)-3-(2-(2-(naphthalen-1-yloxy)acetyl)hydrazineyl)-3-oxoprop-1-en-2-yl)benzamide], the IC50 (MCF-7 Br Ca cell line; [3]) is reported as 28.7 ± 1.45 µM.

Work on `O=C(COc1cccc2ccccc12)NNC(=O)/C(=C/c1cc(Br)c(O)c(Br)c1)NC(=O)c1ccccc1` [5g, (Z)-N-(1-(3,5-Dibromo-4-hydroxyphenyl)-3-(2-(2-(naphthalen-1-yloxy)acetyl)hydrazineyl)-3-oxoprop-1-en-2-yl)benzamide] yielded an IC50 (MCF-7 Br Ca cell line; [3]) of 18.5 ± 1.26 µM.

`COc1ccc(/C=C(\NC(=O)c2ccccc2)C(=O)NNC(=O)COc2cccc3ccccc23)c(OC)c1OC` [5h, (Z)-N-(3-(2-(2-(Naphthalen-1-yloxy)acetyl)hydrazineyl)-3-oxo-1-(2,3,4-trimethoxyphenyl)prop-1-en-2-yl)benzamide] gave an IC50 (MCF-7 Br Ca cell line; [3]) of 25.9 ± 1.41 µM.

`COc1cc(/C=C(\NC(=O)c2ccccc2)C(=O)NNC(=O)COc2cccc3ccccc23)cc(OC)c1OC` [5i, (Z)-N-(3-(2-(2-(Naphthalen-1-yloxy)acetyl)hydrazineyl)-3-oxo-1-(3,4,5-trimethoxyphenyl)prop-1-en-2-yl)benzamide] showed an IC50 (MCF-7 Br Ca cell line; [3]) of 16.9 ± 0.82 µM.

For `COc1ccc(C(=O)N/C(=C\c2cc(OC)c(OC)c(OC)c2)C(=O)NNC(=O)COc2cccc3ccccc23)cc1` [5j, (Z)-4-Methoxy-N-(3-(2-(2-(naphthalen-1-yloxy)acetyl)hydrazineyl)-3-oxo-1-(3,4,5-trimethoxyphenyl)prop-1-en-2-yl)benzamide], the IC50 (MCF-7 Br Ca cell line; [3]) was 21.2 ± 0.92 µM.

With `O=C(COc1cccc2ccccc12)NNC(=O)/C(=C/c1ccco1)NC(=O)c1ccccc1` [6a, (Z)-N-(1-(Furan-2-yl)-3-(2-(2-(naphthalen-1-yloxy)acetyl)hydrazineyl)-3-oxoprop-1-en-2-yl)benzamide] the IC50 (MCF-7 Br Ca cell line; [3]) was 9.18 ± 0.66 µM.

`COc1ccc(C(=O)N/C(=C\c2ccco2)C(=O)NNC(=O)COc2cccc3ccccc23)cc1` [6b, (Z)-N-(1-(Furan-2-yl)-3-(2-(2-(naphthalen-1-yloxy)acetyl)hydrazineyl)-3-oxoprop-1-en-2-yl)-4-methoxybenzamide] showed an IC50 (MCF-7 Br Ca cell line; [3]) of 11.5 ± 0.76 µM.

In the case of `O=S(=O)(NCc1cccc(CNS(=O)(=O)c2ccc3ccccc3c2)c1)c1ccc2ccccc2c1` [IV], the IC50 (aromatase) is listed as 0.21 µM.
